Test results published in patent US7265139B2, “RXR activating molecules” (Incyte San Diego Inc., priority 2001, dated 2007).

Molecular target: T1, RXR receptor (Homo sapiens, UniProt P19793)
T1 construct: expressed in transfected cells
T1 sequence (P19793 1-462): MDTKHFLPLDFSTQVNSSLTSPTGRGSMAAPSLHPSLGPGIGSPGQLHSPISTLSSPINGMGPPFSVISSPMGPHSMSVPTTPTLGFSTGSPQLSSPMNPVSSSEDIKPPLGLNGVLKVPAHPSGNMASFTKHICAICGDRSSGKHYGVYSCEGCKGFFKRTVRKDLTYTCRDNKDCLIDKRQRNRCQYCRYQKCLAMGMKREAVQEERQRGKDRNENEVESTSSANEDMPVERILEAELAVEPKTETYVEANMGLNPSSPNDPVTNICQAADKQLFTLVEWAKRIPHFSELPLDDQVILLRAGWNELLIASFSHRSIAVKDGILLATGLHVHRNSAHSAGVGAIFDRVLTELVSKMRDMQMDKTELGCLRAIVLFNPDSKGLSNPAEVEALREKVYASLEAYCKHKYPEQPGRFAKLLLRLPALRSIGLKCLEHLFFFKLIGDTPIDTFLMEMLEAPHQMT
Assay: RXR activation (transient transfection reporter assay)
Type: cell-based
Conditions: 1 μM compared to 9-cis-RA at equal concentration
Excerpt: RXR agonists activate the RXR receptor when interacting with RXR by binding to its binding pocket. This activation can be independent of whether the agonist, while interacting with portions of the ligand binding pocket, also interacts with side pocket 1. Activation, also often referred to as transcriptional activation, of RXR by agonists can be measured by a number of commonly used assays where the effect of the agonist ligand interacting with the RXR ligand binding pocket is to stimulate or induce transcription of a gene or genes in a cell. In one particular embodiment, transient transfection experiments (as described essentially by Zhang, et al. (1996) Negative Regulation of Peroxisome Proliferator—Activated Receptor—γ Gene Expression Contributes to the Antiadipogenic effects of Tumor Necrosis Factor—α. Mol. Endo. 10:1457-1456) can be used. In these cases, full length RXR proteins are expressed in living cells. Alternatively, hybrid proteins that contain a portion of another DNA binding domain and the ligand binding portion of the human RXRα receptor can be expressed in living cells instead of the full length RXR protein. Such hybrid proteins can bind to and activate specific reporter genes introduced into the same living cell and activation of such reporter genes is measured. The assays described here are very commonly used today by people skilled in the art of molecular biology experimenting. Transient transection assays are often used instead of ligand binding assays and can serve to measure or estimate an affinity of an RXR agonist ligand for RXR protein. The effective dose fifty (ED50, also called EC50) is the concentration of the ligand necessary to lead to one half maximal activation of the reporter gene in a living cell. Compounds that show 60% of the activity of the agonist 9-cis retenoic acid at 10^−6 M can be considered an RXR activator/agonist. Compounds which show 70% 80% 90% of the activity of the agonist 9-cis retinoic acid are also provided.
To confirm that the computer modeling/design of a compound does result in an RXR activator or RXR agonist, i.e. a compound that leads to RXR activation or transcriptional activation, commonly used assays can be applied, where the effect of the agonist or activator, interacting with the RXR ligand binding pocket is to stimulate or induce transcription of a gene or genes in a cell. In one particular embodiment, transient transfection experiments (as described essentially by Zhang, et al. (1996) Negative Regulation of Peroxisome Proliferator—Activated Receptor—γ Gene Expression Contributes to the Antiadipogenic effects of Tumor Necrosis Factor—α. Mol. Endo. 10:1457-1456) can be used. In these cases, full length RXR proteins are expressed in living cells. Alternatively, hybrid proteins that contain a portion of another DNA, binding domain and the ligand binding portion of the human RXRα receptor can be expressed in living cells instead of the fall length RXR protein. Such hybrid proteins can bind to and activate specific reporter genes introduced into the same living cell and activation of such reporter genes is measured (Brand, A. H. & Perrimon, 1993, Development, 118:401-415; Moya-Camarena, S. Y. et.al., 1999, J. Lipid Res., 40:1426:1433; Yi, Y. W. et al., 2000, Biochem. Biophys. Res. Commun., 272:193-198, each are herein incorporated by reference at least for material related to reporter assays). These assays not only measure binding of the ligand to its target, which could also be measured by an in vitro binding assay, but also measure the agonistic or activator activity of the compound. In such an assay, new compounds are compared to a standard activator like compound I or the natural agonist of RXR: 9-cis retinoic acid (see Example 7). For instance, all compounds that show at a given concentration at least 60% of the activity of 9-cis retinoic acid can be considered useful activators.

In the case of `Cc1cc2c(cc1-c1cc(C=C3SC(=O)NC3=O)ccc1OC(F)(F)F)C(C)(C)CCC2(C)C` [Compound 1], the “RXR Activation” value is reported as 110%.
